Literature values, collected in US20130096134A1, “HETEROCYCLIC COMPOUNDS AND THEIR USES” (Amgen Inc., priority 2010, published 2013).

Tests used:
murine model of asthma = details: ovalbumin-induced airway inflammation
p110δ = target: T1, p110δ (Homo sapiens, UniProt O00329)
T1 sequence (O00329 1-1044): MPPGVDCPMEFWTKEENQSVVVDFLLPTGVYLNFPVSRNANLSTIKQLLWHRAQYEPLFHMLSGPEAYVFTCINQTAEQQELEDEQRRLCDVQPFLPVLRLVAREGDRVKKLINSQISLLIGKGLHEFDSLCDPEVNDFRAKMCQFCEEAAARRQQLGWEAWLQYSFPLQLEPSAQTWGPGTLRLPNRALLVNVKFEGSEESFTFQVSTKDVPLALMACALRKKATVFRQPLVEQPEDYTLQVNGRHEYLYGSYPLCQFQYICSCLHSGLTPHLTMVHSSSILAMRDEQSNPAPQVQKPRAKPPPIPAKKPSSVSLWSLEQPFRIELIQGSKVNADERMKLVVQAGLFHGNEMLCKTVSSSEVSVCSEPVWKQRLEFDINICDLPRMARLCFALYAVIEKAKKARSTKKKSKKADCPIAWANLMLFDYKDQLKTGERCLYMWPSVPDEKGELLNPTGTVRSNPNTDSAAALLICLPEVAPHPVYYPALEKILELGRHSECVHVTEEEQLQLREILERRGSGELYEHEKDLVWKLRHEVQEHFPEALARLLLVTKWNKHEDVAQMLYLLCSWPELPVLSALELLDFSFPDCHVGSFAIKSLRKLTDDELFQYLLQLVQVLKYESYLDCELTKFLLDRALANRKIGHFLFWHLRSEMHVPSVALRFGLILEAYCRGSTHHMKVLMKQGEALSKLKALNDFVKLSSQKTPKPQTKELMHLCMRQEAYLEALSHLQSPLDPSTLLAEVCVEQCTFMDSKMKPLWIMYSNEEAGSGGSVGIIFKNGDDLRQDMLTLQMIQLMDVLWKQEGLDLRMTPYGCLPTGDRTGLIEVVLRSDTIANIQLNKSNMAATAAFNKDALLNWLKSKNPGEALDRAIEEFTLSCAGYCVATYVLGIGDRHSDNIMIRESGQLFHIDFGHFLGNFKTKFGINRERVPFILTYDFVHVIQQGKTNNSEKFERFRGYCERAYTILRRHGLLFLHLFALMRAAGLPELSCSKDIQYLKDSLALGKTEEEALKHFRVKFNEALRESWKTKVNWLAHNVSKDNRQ

[1] = test system: model of systemic lupus erythematosis; details: in vivo
[2] = test system: mouse model of rheumatoid arthritis; details: in vivo

SMILES | activity against any protein kinases tested (protein kinases) | inflammation and disease in a murine model of asthma (murine model of asthma) | inhibition of p110δ (p110δ) | onset of disease in a model of systemic lupus erythematosis [1] | efficacy in a mouse model of rheumatoid arthritis [2]
Cc1ccccc1-n1c(Cn2cnc3c(N)ncnc32)nc2cccc(C)c2c1=O [IC87114] | no activity | significantly ameliorate inflammation and disease | high nanomolar range (triple digit) |  | 
O=C1NC(=O)/C(=C\c2ccc3nccnc3c2)S1 [AS 605240] |  |  |  | delay onset of disease | efficacious
